No end group written: not given here. His‑tag = His-Tag conjugated at the N-terminus
B1: PK-4: Recombinant 170 amino acid polypeptide (21 kDa), sequence 1171-1314 and 1369-1380 of human pericentriolar material protein-1, PCM-1 (protein)
chain: SGKTEYMAFPKPFESSSSIGAEKPRNKKLPEEEVESSRTPWLYEQEGEVEKPFIKTGFSVSVEKSTSSNRKNQLDTNGRRRQFDEESLESFSSMPDPVDPTTVTKTFKTRKASAQASLASKDKTPKSKSKKRNSTQLKSRVKNITHARRILQQSNRNACNEAPETGSDFSMFEA

Legend:
[1] = format: in vitro ADME
Description: (§1) These fusion proteins can be used not only to specifically deliver ABPs to the brain but also inside brain cells. This is particularly important since intracellular Aβ is believed to play a major role in synaptic dysfunction and neurodegeneration well before the accumulation of insoluble Aβ in senile plaques^6,7. Such pseudo vaccines would be administered, for example, subcutaneously, and further ingredients beyond a pharmacologically acceptable carrier would not be necessary. […] Recombinant Aβ binding peptide P4-5 (rABP, His-tag-[…]) was conjugated to BBB-permeable single-domain antibody FC5 (FIG. 8A). The FC5 conjugated peptide (FC5/ABP) bound AB1-42 equally well as the synthetic (sABP) or non-conjugated peptide (rABP) (FIG. 8B).

AB1-42 [2] = biological target: T1, AB1-42 (Homo sapiens, UniProt P05067); assay: Aβ binding of FC5-conjugated peptide
Description: as §1

[3] = Stability in rat blood plasma; format: in vitro ADME
Method: (§2) All peptides P4, P5 and P4-5 are stable in serum containing medium for up to 48 hrs and also in rat blood plasma (FIG. 7). P4 peptide was incubated in culture medium containing 10% fetal calf serum for various time periods at 37° C. and the stability of p4 was tested by Western blot analysis using p4-specific antibody. No loss of P4 was detected over a 24 hour period.

CD-1 mice = assay: Toxicity in vivo; design: species or system mouse; details: up to 20 mg/kg body weight
[4] = Stability in serum containing medium; format: in vitro ADME; details: for stability in serum containing medium: up to 48 hrs
Method: as §2

neuroblastoma cells = assay: Toxicity in vitro against cultured neuroblastoma cells; format: cell-based; details: data not shown
Method: Human neuroblastoma cells, SH-SY5Y were treated with 15 μM Aβ in the presense or absence of Aβ binding peptide p4-5 in serum-free medium for 48 hrs and cell death was assessed by Hoechst stain.

primary cortical neurons = assay: Toxicity in vitro against primary cortical neurons; format: cell-based; details: data not shown
Aβ1-40 = Aβ1-40 (Homo sapiens, UniProt P05067); assay: Aβ-binding of recombinant proteins by dot-blot assay; details: PK-4-specific antibody (FIG. 1B)
Method: (§3) Aβ-binding of recombinant proteins PK-4 and PK-3 with N-terminus His-tag was determined by dot-blot assay using His-Tag antibody (A) or PK-4-specific antibody (B), and by Biacore analysis (C). β-binding PK-4 is a […] amino acid-long polypeptide that corresponds to sequence 1171-1314, and 1369-1380, of the human pericentriolar material protein-1, PCM-1.

Aβ1-42 = Aβ1-42 (Homo sapiens, UniProt P05067); assay: as above
Method: as §3

AB1-42 [5] = biological target: T1, AB1-42; assay: Biacore analysis; format: binding; details: Biacore (FIG. 1C)
Method: as §3

Aβ40-1 = assay: Aβ-binding dot-blot assay, reverse peptide; details: dot-blot (FIG. 1B)
Method: as §3

Aβ42-1 = assay: Aβ-binding dot-blot assay, reverse peptide; details: dot-blot (FIG. 1B)
Method: as §3

rat brain PKC = assay: PKC inhibitory activity in vitro; format: biochemical; details: rat brain PKC (FIG. 5)
Method: Various synthetic peptides derived from PK-4 (see FIG. 2) were tested for PKC inhibitory activity in vitro using rat brain PKC.

T1 sequence (P05067 672-713 limits assumed): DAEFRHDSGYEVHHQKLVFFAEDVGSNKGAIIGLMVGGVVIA
Sequence of Aβ1-42 (P05067 672-713 limits assumed): as above
Sequence of Aβ1-40 (P05067 672-711 limits assumed): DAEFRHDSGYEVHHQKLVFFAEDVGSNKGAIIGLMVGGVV

Row | Molecule | crossing of BBB in vitro [1] | stability in rat blood plasma [3] | apparent toxicity in vivo (CD-1 mice) | stability in serum containing medium [4] | toxicity in vitro against cultured neuroblastoma cells (neuroblastoma cells) | toxicity in vitro against primary cortical neurons (primary cortical neurons) | other results
1 | FC5/ABP: Recombinant Aβ binding peptide P4-5 conjugated to BBB-permeable single-domain antibody FC5 ({His‑tag}-MPDPVDPTTVTKTFKTRKASAQASLASKDKTPKSKSKKRNSTQLKSRVKNI; also: conjugated to single-domain antibody FC5) | crossed the barrier |  |  |  |  |  | binding of AB1-42 relative to synthetic or non-conjugated peptide (AB1-42 [2]): equally well
2 | KDKTPKSKSKKRNSTQLKSRVKNITHARRILQQSNRNACN [Peptide P5] |  | stable | none of the peptides, p4, p5, or p4-5 showed any apparent toxicity | stable |  |  | 
3 | KTFKTRKASAQASLASKDKTPKSKSKKRNSTQLKSRVKNI [Peptide P4-5] |  | stable | none of the peptides, p4, p5, or p4-5 showed any apparent toxicity | stable | no toxicity | no toxicity | 
4 | His-tag-MPDPVDPTTVTKTFKTRKASAQASLASKDKTPKSKSKKRNSTQLKSRVKNI ({His‑tag}-MPDPVDPTTVTKTFKTRKASAQASLASKDKTPKSKSKKRNSTQLKSRVKNI) [rABP] | did not cross the BBB |  |  |  |  |  | 
5 | FSSMPDPVDPTTVTKTFKTRKASAQASLASKDKTPKSKSK [Peptide P4] |  | stable | none of the peptides, p4, p5, or p4-5 showed any apparent toxicity | stable | no toxicity | no toxicity | loss of peptide in culture medium containing 10% fetal calf serum ([4]; 37° C., over a 24 hour period, Western blot): No loss
6 | B1 |  |  |  |  |  |  | binding affinity for Aβ1-40 (Aβ1-40): high affinity (nM range); selective binding of Aβ1-42 (Aβ1-42; His-Tag antibody (FIG. 1A)): selectively binds Aβ1-42; binding affinity for Aβ1-42 (Aβ1-42; PK-4-specific antibody (FIG. 1B)): high affinity (nM range); binding of AB1-42 (AB1-42 [5]): High affinity-binding; binding of reverse peptide Aβ40-1 (Aβ40-1): does not bind; binding of reverse peptide Aβ42-1 (Aβ42-1): does not bind; PKC inhibitory activity (rat brain PKC): inhibits

— patent US8323925B2, “Aβ-binding protein and its peptide derivatives and uses thereof” (priority 2005, dated 2012)
